Square brackets hold non-standard residues; d marks the D form. * marks the point of attachment. Pentanoyl(4-Me) = CC(C)CCC(=O)*; Aib = CC(C)(N)C(=O)O; For = O=C*
Test: Food intake assay in overnight fasted mice
Format: in vivo
Details: 25 nmol/kg intraperitoneal
Procedure: Female NIH/Swiss mice (8-14 weeks old) were group housed with a 12:12 hour light:dark cycle. Water and a standard pelleted mouse chow diet are available ad libitum, except as noted. Animals are fasted starting at approximately 1500 hrs, 1 day prior to experiment.
The effects of treatment on food intake are expressed as % change relative to control.

Substance | cumulative food intake compared to vehicle, 30 min [%] | cumulative food intake compared to vehicle, 60 min [%] | cumulative food intake compared to vehicle, 120 min [%] | cumulative food intake compared to vehicle, 180 min [%]
KCNTATCVLGRLTDYLHRLQTYPRTNTGSNTY [Compound 105] | −83 | −82 | −52 | 
KCNTATCVLGRLSQELHRLQTYPRTNTGSKAF [Compound 93] | −43 | −30 | −27 | −29
KCNTATCVLGRLSQELHRLQNFVPRTNTGSNTY [Compound 90] | −55 | −41 | −24 | −15
Isocaproyl-STAVL(Aib)[K(For)]LSQEL(Aib)[K(For)]LQTYPRTNTGSNTY ({Pentanoyl(4-Me)}-STAVL[Aib]K(For)LSQEL[Aib]K(For)LQTYPRTNTGSNTY-NH2; SMILES CC(C)CCC(=O)N[C@@H](CO)C(=O)N[C@H](C(=O)N[C@@H](C)C(=O)N[C@H](C(=O)N[C@@H](CC(C)C)C(=O)NC(C)(C)C(=O)N[C@@H](CCCCNC=O)C(=O)N[C@@H](CC(C)C)C(=O)N[C@@H](CO)C(=O)N[C@@H](CCC(N)=O)C(=O)N[C@@H](CCC(=O)O)C(=O)N[C@@H](CC(C)C)C(=O)NC(C)(C)C(=O)N[C@@H](CCCCNC=O)C(=O)N[C@@H](CC(C)C)C(=O)N[C@@H](CCC(N)=O)C(=O)N[C@H](C(=O)N[C@@H](Cc1ccc(O)cc1)C(=O)N1CCC[C@H]1C(=O)N[C@@H](CCCNC(=N)N)C(=O)N[C@H](C(=O)N[C@@H](CC(N)=O)C(=O)N[C@H](C(=O)NCC(=O)N[C@@H](CO)C(=O)N[C@@H](CC(N)=O)C(=O)N[C@H](C(=O)N[C@@H](Cc1ccc(O)cc1)C(N)=O)[C@@H](C)O)[C@@H](C)O)[C@@H](C)O)[C@@H](C)O)C(C)C)[C@@H](C)O) [Compound 31] | −11 | −18 | −23 | 
KCNTATCVLGRLADALHRLQTYPRTNTGSNTY [Compound 95] | −81 | −69 | −34 | −31
TCDTATCVLGRLSQELHRLQTYPRTNTGSNTY [Compound 114] | −17 | −20 | −25 | 
KCNTATCVLGRLADFLHRLQTYPRTNTGSNTY [Compound 88] | −64 | −61 | −39 | −22
KCNTATCVLG(homoR)LSQELH(homoR)LQTYPRTNTGSNTY [Compound 74] | −42 | −32 | −31 | 
